Results: patent US20250066386A1, “INHIBITORS OF KRAS” (BIOMEA FUSION, INC., priority 2022, published 2025)
Read-outs that look alike come from different tables or passages of the source.

How the values were obtained:
[1] = 18-membered ring, DCM, 25.0 °C
[2] = tested on: human KRAS G12D mutated cell line SUIT-2; test: KRas G12D in vitro inhibitory activity: cell proliferation, CellTiter-Glo; format: cell-based; conditions: 7 day inhibition of cell proliferation, medium and compound renewed on day 3, CellTiter-Glo luminescence
From the text: (§1) The present example evaluates the ability of compounds provided herein to inhibit proliferation of KRAS mutant cells.
The proliferation inhibitory effect was investigated in the human KRAS G12D mutated cell line SUIT-2 (Iwamura et al., 1987, Jpn. J. Cancer Res. 78.54-62; JCRB catalog no. JCRB1094). Cells were maintained in RPMI-1640 medium (ThermoFisher catalog no. 61870036) supplemented with 10% of Heat Inactivated FBS (ThermoFisher catalog no. A31605) and 1% Pen-Strep (ThermoFisher catalog no. 10378016) and cultured at 37° C. in a humidified incubator with 5% CO2. Cells were grown by adhering to culture flasks, and maintained at 70%-80% confluency.
(§2) ATP is present in all metabolically active cells and is considered as a marker for viable cells. The number of metabolically active live cells in culture was determined using the CellTiter-Glo kit (Promega catalog no. G7572), an ATP monitoring system based on the production of luminescence by the reaction of ATP with added UltraGlo® recombinant luciferase (Kawano et al., 2016, PLOS One, 8; 11(7):e0158888), according to the supplier's experimental recommendations. The cell proliferation assay was based on a 96 well plate format.
(§3) Test compounds were dissolved at 10 mM in DMSO (Sigma catalog no. D8418; purity >99.9%) and stored at −20° C. Eight concentrations of test compound were assessed in duplicate in an individual test occasion in parallel in the selected cell lines. MRTX-849 and AMG-510 were used as reference compounds and tested in duplicate at eight concentrations. 100% of proliferation is represented by the untreated cells (0.1% DMSO).
(§4) On the day of the experiment (TO), cells were detached with TrypLE (ThermoFisher catalog no. 12604054) quantified using the cell viability analyzer NucleoCounter (Chemometec NC-200) and resuspended in fresh medium at a cell density of about 1000 cells per 200 μL medium. 200 μL of cell suspension were added to each well of a 96 well plate.
Two 2 hours after seeding cells, compounds were added at desired concentrations using a D300e compound dispenser (Life Sciences Tecan D300) with shaking after each compound addition. Assay plates were incubated at 37° C. in a humidified incubator with 5% CO2.
On day 3 (T3), 150 μL of growth media was removed from each well of the assay plates and replaced with 150 uL fresh growth media, and fresh compounds added using a D300e compound dispenser (Life Sciences Tecan D300) at desired concentrations with shaking between each compound addition. […] Luminescence was read using a GloMax GM300 plate reader (Promega) using the luminescence for 96 well plate standard protocol. […]
(§5) Results were analyzed by GraphPad (Prism) and IC50 values were calculated by non-linear regression using four parameter-logistic equation. […]

[3] = tested on: human KRAS G12C mutated cell line MIA PaCa-2; test: KRas G12C in vitro inhibitory activity: cell proliferation, CellTiter-Glo; format: cell-based
From the text: as §1
The inhibitory effect on cell proliferation was investigated in the human KRAS G12C mutated cell line MIA PaCa-2 (Yunis et al., 1977, Int. J. Cancer 19(1):128-135; ATCC catalog no. CRL-1420). Cells were maintained in RPMI-1640 medium (ThermoFisher catalog no. 61870036) supplemented with 10% of Heat Inactivated FBS (ThermoFisher catalog no. A31605) and 1% Pen-Strep (ThermoFisher catalog no. 10378016) and cultured at 37° C. in a humidified incubator with 5% CO2. Cells were grown by adhering to culture flasks, and maintained at 70%-80% confluency.
as §2
as §3, with “(0.2%” for “(0.1%”
as §4, with “12604054),” for “12604054)”, “analyser” for “analyzer”, “5000” for “1000”
Two hours after seeding cells, compounds were added at desired concentrations using a D300e compound dispenser (Life Sciences Tecan D300) with shaking after each compound addition. Assay plates were incubated at 37° C. in a humidified incubator with 5% CO2.
(§6) To measure 3 day inhibition of cell proliferation on day 3 (T3), assay plates were equilibrated to room temperature for approximately 15 min, and the Promega CellTiterGlo® reagent was added at 40 μL/well. Contents were mixed for 5 min on an orbital shaker to induce cell lysis, and then incubated at room temperature for an additional 10 min in the dark to stabilize the luminescent signal. Luminescence was read using a GloMax GM300 plate reader (Promega) using the luminescence for 96 well plate standard protocol.
as §6, with “measure 7” for “measure 3”, “(T3), 150 μL of growth media was removed from each well of the assay plates and replaced with 150 uL fresh growth media, and fresh compounds added using a D300e compound dispenser (Life Sciences Tecan D300) at desired concentrations with shaking between each compound addition. Assay plates were incubated at 37° C. in a humidified incubator with 5% CO2. On day 7 (T7)” for “(T3),”
Data was expressed as % of inhibition compared to the 0.2% DMSO negative no drug control, and is calculated as follows: % inhibition=100−[(RLU sample)×100/(RLU average controls*)], where * indicates the average for 0.2% DMSO.
as §5

[4] = Homo sapiens, MIA PaCa-2, 72 h, 3 day inhibition of cell proliferation, CellTiter-Glo luminescence, read-out: MIA PaCa-2 Day 3 IC50
[5] = Homo sapiens, MIA PaCa-2, 7 day inhibition of cell proliferation, medium and compound renewed on day 3, CellTiter-Glo luminescence, read-out: MIA PaCa-2 Day 7 IC50

| IC50 [3, 4] [nM] | IC50 [3, 5] [nM] | SMILES | IC50 [2] [nM] | also measured |
| --- | --- | --- | --- | --- |
|  |  | CCn1c(-c2cccnc2[C@H](C)OC)c2c3cc(ccc31)-c1cccc(c1)C[C@H](NC(=O)OC(C)(C)C)C(=O)N1CC[C@@H](C1)C(=O)OCC(C)(C)C2 |  | ring closure, isolated yield ([1]; from CCn1c(-c2cccnc2[C@H](C)OC)c(CC(C)(C)CO)c2cc(-c3cccc(C[C@H](NC(=O)OC(C)(C)C)C(=O)N4CC[C@H](C(=O)O)C4)c3)ccc21, ester bond, EDC/HOBT/DIPEA, 47.2 mM, 16.0 h, 2 steps): 60% |
|  |  | CCn1c(-c2cccnc2[C@H](C)OC)c2c3cc(ccc31)-c1cccc(c1)C[C@H](NC(=O)OCc1ccccc1)C(=O)N1CCC[C@@H](CC(=O)OC(C)(C)C2)C1 |  | ring closure, isolated yield ([1]; from CCn1c(-c2cccnc2[C@H](C)OC)c(CC(C)(C)OC(=O)C[C@@H]2CCCNC2)c2cc(-c3cccc(C[C@H](NC(=O)OCc4ccccc4)C(=O)O)c3)ccc21, amide bond, T3P/DIPEA, 32.3 mM, 1.0 h, 3 steps): 44% |
|  |  | CCn1c(-c2cccnc2[C@H](C)OC)c2c3cc(ccc31)-c1cccc(c1)C[C@H](NC(=O)[C@H](C(C)C)N(C)C(=O)[C@H]1CCN(C(=O)C#CCN3CCOCC3)C1)C(=O)N1CCC[C@H](C1)C(=O)OCC(C)(C)C2 (atropisomer, axis not shown) [Compound 1, (3S)—N-((2S)-1-(((6^3R,4S)-1^1-ethyl-1^2-(2-((S)-1-methoxyethyl)pyridin-3-yl)-10,10-dimethyl-5,7-dioxo-1^1H-8-oxa-1(5,3)-indola-6(1,3)-piperidina-2(1,3)-benzenacycloundecaphane-4-yl)amino)-3-methyl-1-oxobutan-2-yl)-N-methyl-1-(4-morpholinobut-2-ynoyl)pyrrolidine-3-carboxamide] | > 100 | IC50 ([3]; 7 day inhibition of cell proliferation, medium and compound renewed on day 3, CellTiter-Glo luminescence, read-out: MIA PaCa-2 Day 7 IC50): 10 to 100 nM |
| 1 to 10 | 1 to 10 | CCn1c(-c2cccnc2[C@H](C)OC)c2c3cc(ccc31)-c1cccc(c1)C[C@H](NC(=O)[C@H](C(C)C)N(C)C(=O)[C@H]1CCN(CC#CC(=O)N(C)C)C1)C(=O)N1CCC[C@H](N1)C(=O)OCC(C)(C)C2 (atropisomer, axis not shown) [Compound 3, (3S)-1-(4-(dimethylamino)-4-oxobut-2-yn-1-yl)-N-((2S)-1-(((6^3S,4S)-1^1-ethyl-1^2-(2-((S)-1-methoxyethyl)pyridin-3-yl)-10,10-dimethyl-5,7-dioxo-6^1,6^2,6^3,6^4,6^5,6^6-hexahydro-1^1H-8-oxa-1(5,3)-indola-6(1,3)-pyridazina-2(1,3)-benzenacycloundecaphane-4-yl)amino)-3-methyl-1-oxobutan-2-yl)-N-methylpyrrolidine-3-carboxamide] | > 100 |  |
|  | > 100 | CCn1c(-c2cccnc2[C@H](C)OC)c2c3cc(ccc31)-c1cccc(c1)C[C@H](NC(=O)[C@H](C(C)C)N(C)C(=O)[C@H]1CCN(C(=O)C#CC(=O)N(C)C)C1)C(=O)N1CCC[C@H](N1)C(=O)OCC(C)(C)C2 (atropisomer, axis not shown) [Compound 4] | > 100 |  |
| 1 to 10 | 10 to 100 | CCn1c(-c2cccnc2[C@H](C)OC)c2c3cc(ccc31)-c1cccc(c1)C[C@H](NC(=O)[C@H](C(C)C)N(C)C(=O)[C@H]1CCN(C(C)C#CC(=O)N(C)C)C1)C(=O)N1CCC[C@H](N1)C(=O)OCC(C)(C)C2 (stereo partly drawn) [Compound 5] | > 100 |  |
